Data on nine molecules can be found in article PMC9441601, “Aspergillus oryzae accelerates the conversion of ergosterol to ergosterol peroxide by efficiently utilizing cholesterol” (Frontiers in Genetics, 2022).

The target in this assay is T1, Osh3 (Aspergillus oryzae, UniProt Q2U562).
T1 construct: gene AO090020000057
Briefly: microscale thermophoresis (MST), purified fluorescently labelled Osh3. Format: binding.

Structures are written as SMILES. Like-named read-outs stand apart in the source and are kept apart here.

T1 sequence (Q2U562 entry or part of it): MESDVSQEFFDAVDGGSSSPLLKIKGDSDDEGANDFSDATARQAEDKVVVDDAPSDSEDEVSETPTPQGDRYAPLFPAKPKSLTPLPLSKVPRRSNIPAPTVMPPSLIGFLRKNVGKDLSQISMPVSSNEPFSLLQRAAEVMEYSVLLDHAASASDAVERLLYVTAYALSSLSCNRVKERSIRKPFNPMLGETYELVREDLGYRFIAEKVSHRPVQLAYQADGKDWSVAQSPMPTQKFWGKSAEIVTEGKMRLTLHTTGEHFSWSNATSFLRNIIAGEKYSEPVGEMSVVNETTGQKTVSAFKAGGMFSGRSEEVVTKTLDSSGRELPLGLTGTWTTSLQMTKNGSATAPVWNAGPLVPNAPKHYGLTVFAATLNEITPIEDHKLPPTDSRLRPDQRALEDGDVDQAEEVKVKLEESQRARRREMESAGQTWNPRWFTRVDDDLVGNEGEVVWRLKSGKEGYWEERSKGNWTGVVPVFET

`CC(C)[C@@H](C)/C=C/[C@@H](C)[C@H]1CC[C@H]2C3=C[C@@H](O)[C@@]4(O)C[C@@H](O)CC[C@]4(C)[C@H]3CC[C@]12C` [cerevisterol]: the Kd (read-out: Kd) was 3.4 ± 1.3 nM.

`CC[C@H](/C=C/[C@@H](C)[C@H]1CC[C@H]2[C@@H]3CC=C4C[C@@H](O)CC[C@]4(C)[C@H]3CC[C@]12C)C(C)C` [stigmasterol] returned a Kd of 1 ± 0.8 nM.

Take `CC(C)[C@@H](C)/C=C/[C@@H](C)[C@H]1CC[C@@H]2[C@]1(C)CC[C@H]1[C@]23C=C[C@]2(C[C@@H](O)CC[C@]12C)OO3` [ergosterol peroxide]: for the setting “read-out: Kd”, the Kd was found to be 8.1 ± 2.1 nM. `CC(C)CCC[C@@H](C)[C@H]1CC[C@H]2[C@@H]3CC=C4C[C@@H](O)CC[C@]4(C)[C@H]3CC[C@]12C` [cholesterol]: under “read-out: Kd”, the Kd came out at 333 ± 45.3 nM.

For `C[C@H](CCCC(C)(C)O)[C@H]1CC[C@H]2[C@@H]3CC=C4C[C@@H](O)CC[C@]4(C)[C@H]3CC[C@]12C` [25-hydroxycholesterol], the Kd (read-out: Kd) turned out to be 9.1 ± 2 nM.

As for `CC(C)[C@H](C)CC[C@@H](C)[C@H]1CC[C@H]2[C@@H]3CC=C4C[C@@H](O)CC[C@]4(C)[C@H]3CC[C@]12C` [campesterol], binding was put at a Kd of 339 ± 78.1 nM. Molecule `CC[C@H](CC[C@@H](C)[C@H]1CC[C@H]2[C@@H]3CC=C4C[C@@H](O)CC[C@]4(C)[C@H]3CC[C@]12C)C(C)C` [β-sitosterol] came in with a Kd of 65.8 ± 24.6 nM. Take `CC(C)CCC[C@@H](C)[C@H]1CC[C@H]2[C@@H]3C(=O)C=C4C[C@@H](O)CC[C@]4(C)[C@H]3CC[C@]12C` [7-ketocholesterol]: under “read-out: Kd”, the Kd came to 1460 nM. Consider `CC(C)[C@@H](C)/C=C/[C@@H](C)[C@H]1CC[C@H]2C3=CC=C4C[C@@H](O)CC[C@]4(C)[C@H]3CC[C@]12C` [ergosterol], for which the Kd (read-out: Kd) worked out at 122 ± 24.3 nM.

The Kd is the concentration at which binding is half-saturated.
